# Reference: ChEMBL document CHEMBL5137081, “N-Heterocyclic 3-Pyridyl Carboxamide Inhibitors of DHODH for the Treatment of Acute Myelogenous Leukemia” (J Med Chem, 2022)
# Assays:
# MOLM-13 = assay: Antiproliferative activity against human MOLM-13 cells incubated for 72 hrs by CellTiter-Glo assay; type: functional, cell-based; conditions: MOLM-13, 72 h
# [1] = target: Dihydroorotate dehydrogenase (quinone), mitochondrial (Homo sapiens, UniProt Q02127); assay: Inhibition of His fused human DHODH expressed in Escherichia coli using DHO as substrate by DCIP absorbance based colorimetry assay
# [2] = Metabolic stability in human liver microsome assessed as intrinsic clearance pretreated for 5 mins followed by NADPH addition and measured upto 60 mins by HPLC-MS/MS analysis; type: ADME; conditions: microsomes, 1.083 h, time < 65 min
# [3] = Solubility of compound at pH 7 by HPLC analysis; type: physicochemical; conditions: buffer
# MDR1 = assay: Efflux ratio of apparent permeability across basolateral to apical side over apical to basolateral side in dog MDCK-MDR1 cells; type: ADME, cell-based, Canis lupus familiaris
# [4] = Stability in human hepatocytes assessed as intrinsic clearance measured per 10^6 cells incubated upto 120 mins by LC-MS/MS analysis; type: ADME, cell-based, Hepatocyte; conditions: 2 h
# Dihydroorotate dehydrogenase (quinone), mitochondrial, sequence (Q02127 whole entry, the tested form may be a part): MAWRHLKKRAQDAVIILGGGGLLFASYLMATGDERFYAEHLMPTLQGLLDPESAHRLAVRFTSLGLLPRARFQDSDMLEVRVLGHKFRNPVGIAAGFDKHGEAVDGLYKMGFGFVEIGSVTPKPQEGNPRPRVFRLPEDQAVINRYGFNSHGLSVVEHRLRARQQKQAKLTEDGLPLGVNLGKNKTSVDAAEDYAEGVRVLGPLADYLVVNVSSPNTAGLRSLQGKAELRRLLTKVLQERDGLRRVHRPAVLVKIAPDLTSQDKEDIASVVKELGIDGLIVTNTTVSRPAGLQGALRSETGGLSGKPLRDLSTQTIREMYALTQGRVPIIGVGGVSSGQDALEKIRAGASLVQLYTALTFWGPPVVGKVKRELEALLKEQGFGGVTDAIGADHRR
Compound,IC50 (MOLM-13),IC50 [1],CLH [2],solubility [3],efflux ratio (MDR1),CLH [4]
CCn1c(CO)nn(-c2nc(O[C@@H](C)C(F)(F)F)c(C(=O)Nc3cnccc3Cl)cc2F)c1=O,9.3 nM,4.7 nM,45 µL/min/mg,–,–,–
CCn1c(CO)nn(-c2nc(O[C@@H](C)C(F)(F)F)c(C(=O)Nc3ncccc3Cl)cc2F)c1=O,6.9 nM,5.2 nM,9.1 µL/min/mg,98 µM,–,–
CCn1c(CO)nn(-c2nc(O[C@@H](C)C(F)(F)F)c(C(=O)Nc3c(F)cnc(OC)c3Cl)cc2F)c1=O,1.4 nM,1.1 nM,< 7.7 µL/min/mg,< 4 µM,–,–
CCn1c(CO)nn(-c2nc(O[C@@H](C)C(F)(F)F)c(C(=O)Nc3ccccc3F)cc2F)c1=O,5 nM,6.1 nM,< 8 µL/min/mg,–,–,–
CCn1c(CO)nn(-c2nc(O[C@@H](C)C(F)(F)F)c(C(=O)Nc3cc(OC)ncc3C)cc2F)c1=O,26 nM,10 nM,–,–,17,–
CCn1c(CO)nn(-c2nc(O[C@@H](C)C(F)(F)F)c(C(=O)Nc3cccnc3Cl)cc2F)c1=O,6.5 nM,2.8 nM,< 8 µL/min/mg,< 4 µM,–,–
CCn1c(CO)nn(-c2nc(OC(C)C)c(C(=O)Nc3c(F)cccc3Cl)cc2F)c1=O,0.2 nM,0.5 nM,< 7.7 µL/min/mg,4 µM,–,–
CCn1c(CO)nn(-c2nc(O[C@@H](C)C(F)(F)F)c(C(=O)Nc3c(C)ccnc3C(F)F)cc2F)c1=O,4 nM,2.4 nM,< 7.7 µL/min/mg,> 400 µM,–,> 400 µL/min/1e6 cells
CCn1c(CO)nn(-c2nc(O[C@@H](C)C(F)(F)F)c(C(=O)Nc3c(C)ccnc3F)cc2F)c1=O,5 nM,2.4 nM,14 µL/min/mg,61 µM,–,61 µL/min/1e6 cells
CCn1c(CO)nn(-c2nc(O[C@@H](C)C(F)(F)F)c(C(=O)Nc3c(Cl)ccnc3OC)cc2F)c1=O,0.3 nM,0.3 nM,10 µL/min/mg,51 µM,–,51 µL/min/1e6 cells
CCn1c(CO)nn(-c2nc(SC(C)C)c(C(=O)Nc3c(F)cccc3Cl)cc2F)c1=O,0.19 nM,302 nM,15 µL/min/mg,–,–,–
CCn1c(CO)nn(-c2nc(O[C@@H](C)C(F)(F)F)c(C(=O)Nc3ccncc3Cl)cc2F)c1=O,61 nM,23 nM,15 µL/min/mg,< 4 µM,–,–
CCn1c(CO)nn(-c2nc(NC(C)C)c(C(=O)Nc3c(F)cccc3Cl)cc2F)c1=O,200 nM,3600 nM,–,–,–,–
CCC(C)Nc1nccc(-c2cnc3sc(C)cn3c2=O)n1 (stereo not drawn),–,1400 nM,–,–,–,–
CCn1c(CO)nn(-c2nc(O[C@@H](C)C(F)(F)F)c(C(=O)Nc3c(Cl)ccnc3C)cc2F)c1=O,5.3 nM,1.9 nM,< 7.7 µL/min/mg,> 400 µM,–,> 400 µL/min/1e6 cells
CCn1c(CO)nn(-c2nc(O[C@@H](C)C(F)(F)F)c(C(=O)Nc3c(F)cncc3Cl)cc2F)c1=O,3.6 nM,2.3 nM,–,–,–,–
CCn1c(CO)nn(-c2nc(O[C@@H](C)C(F)(F)F)c(C(=O)Nc3c(F)cnc(OC)c3C#N)cc2F)c1=O,1 nM,16 nM,–,–,> 30,–
CCn1c(CO)nn(-c2nc(O[C@@H](C)C(F)(F)F)c(C(=O)Nc3ccc(C)nc3Cl)cc2F)c1=O,13 nM,14 nM,–,–,–,–
CCn1c(CO)nn(-c2nc(OC3CCOC3)c(C(=O)Nc3c(F)cccc3Cl)cc2F)c1=O (racemic),25 nM,32 nM,–,–,–,–
CCn1c(CO)nn(-c2nc(O[C@@H](C)C(F)(F)F)c(C(=O)Nc3c(Cl)ccnc3Cl)cc2F)c1=O,0.7 nM,0.6 nM,14 µL/min/mg,381 µM,–,381 µL/min/1e6 cells
CCn1c(CO)nn(-c2nc(O[C@@H](C)C(F)(F)F)c(C(=O)Nc3c(F)cccc3Cl)cc2F)c1=O,0.16 nM,0.2 nM,10 µL/min/mg,< 4 µM,–,–
CCn1c(CO)nn(-c2nc(OC3CC(F)(F)C3(F)F)c(C(=O)Nc3c(F)cccc3Cl)cc2F)c1=O (stereo not drawn),20 nM,22 nM,–,–,–,–
CCn1c(CO)nn(-c2nc(O[C@@H](C)C(F)(F)F)c(C(=O)Nc3c(C)cc(OC)nc3Cl)cc2F)c1=O,3 nM,0.8 nM,–,–,> 30,–
CCn1c(CO)nn(-c2nc(O[C@@H](C)C(F)(F)F)c(C(=O)Nc3cc(C)cnc3Cl)cc2F)c1=O,50 nM,5.7 nM,–,–,–,–
CCn1c(CO)nn(-c2nc(O[C@@H](C)C(F)(F)F)c(C(=O)Nc3c(C)cnc(OC)c3C)cc2F)c1=O,2.1 nM,0.56 nM,< 7.7 µL/min/mg,373 µM,> 30,–
CCn1c(CO)nn(-c2nc(O[C@@H](C)C(F)(F)F)c(C(=O)Nc3ccnc(OC)c3Cl)cc2F)c1=O,13 nM,11 nM,< 7.7 µL/min/mg,–,–,–
